Data: the NIST ThermoML archive (doi:10.1021/je9010486)

Assay: cn = amount concentration of the nth substance listed, in mol/dm3
Conditions: 101 kPa, Liquid

OC[C@@H](O)[C@@H](O)[C@H](O)[C@H](O)CO [mannitol] + O
Conditions	mass density, 293.15 K [kg/m3]	mass density, 303.15 K [kg/m3]	mass density, 313.15 K [kg/m3]	mass density, 323.15 K [kg/m3]	viscosity, 293.15 K [mPa·s]	viscosity, 303.15 K [mPa·s]	viscosity, 313.15 K [mPa·s]	viscosity, 323.15 K [mPa·s]
c1 = 0.1	1004.82	1002.13	998.28	994.21	1.096	0.8694	0.6961	0.5782
c1 = 0.2	1010.89	1008.14	1004.5	999.82	1.143	0.9398	0.7468	0.6062
c1 = 0.3	1016.96	1014.15	1010.72	1005.23	1.203	0.986	0.7918	0.6356
c1 = 0.4	1023.03	1020.16	1016.94	1011.02	1.285	1.036	0.8201	0.6706
c1 = 0.5	1029.1	1026.17	1023.16	1017.33	1.336	1.085	0.8642	0.7104
c1 = 0.6	1035.17	1032.18	1029.38	1024.45	1.4	1.142	0.8954	0.7458
c1 = 0.7	1041.24	1038.19	1035.6	1030.32	1.472	1.197	0.9383	0.7849
c1 = 0.8	1047.31	1044.2	1041.82	1036.78	1.553	1.253	0.9934	0.8456

OC[C@@H](O)[C@@H](O)CO [meso-1,2,3,4-butanetetrol] + O
Conditions	mass density, 293.15 K [kg/m3]	mass density, 303.15 K [kg/m3]	mass density, 313.15 K [kg/m3]	mass density, 323.15 K [kg/m3]	viscosity, 293.15 K [mPa·s]	viscosity, 303.15 K [mPa·s]	viscosity, 313.15 K [mPa·s]	viscosity, 323.15 K [mPa·s]
c1 = 0.1	1002.06	999.34	995.83	991.64	1.047	0.8541	0.6807	0.5663
c1 = 0.2	1005.36	1002.74	999.19	994.96	1.065	0.8706	0.7005	0.5849
c1 = 0.3	1009.37	1006.74	1003.09	998.81	1.088	0.8913	0.721	0.5986
c1 = 0.4	1012.65	1009.58	1006.3	1001.94	1.11	0.911	0.743	0.6171
c1 = 0.5	1016.16	1013.33	1009.63	1005.23	1.139	0.9366	0.7611	0.6351
c1 = 0.6	1019.38	1016.67	1012.43	1008.41	1.169	0.9634	0.7827	0.652
c1 = 0.7	1023.78	1020.8	1015.82	1012.27	1.213	1.002	0.8067	0.6734
c1 = 0.8	1026.82	1024.2	1019.15	1015.63	1.257	1.045	0.8339	0.6909
c1 = 0.9	1031.9	1027.8	1023.23	1019.38	1.306	1.087	0.861	0.7057
c1 = 1	1034.32	1031.18	1027.24	1022.64	1.338	1.137	0.8965	0.7251

OC[C@@H](O)[C@H](O)[C@@H](O)CO [xylitol] + O
Conditions	mass density, 293.15 K [kg/m3]	mass density, 303.15 K [kg/m3]	mass density, 313.15 K [kg/m3]	mass density, 323.15 K [kg/m3]	viscosity, 293.15 K [mPa·s]	viscosity, 303.15 K [mPa·s]	viscosity, 313.15 K [mPa·s]	viscosity, 323.15 K [mPa·s]
c1 = 0.1	1003.31	1000.96	997.16	992.72	1.068	0.858	0.685	0.5687
c1 = 0.2	1008.5	1005.78	1002.18	997.77	1.089	0.8774	0.7057	0.5916
c1 = 0.3	1013.42	1010.64	1006.99	1002.55	1.128	0.9121	0.7305	0.6093
c1 = 0.4	1018.54	1015.65	1011.95	1007.51	1.165	0.9452	0.764	0.6384
c1 = 0.5	1023.6	1020.49	1016.87	1012.42	1.207	0.9829	0.7869	0.6596
c1 = 0.6	1028.66	1025.38	1021.78	1017.34	1.25	1.021	0.825	0.6779
c1 = 0.7	1033.72	1030.28	1026.7	1022.25	1.313	1.079	0.8476	0.7063
c1 = 0.8	1038.78	1035.17	1031.62	1027.17	1.362	1.123	0.8825	0.7344
c1 = 0.9	1043.84	1040.06	1036.54	1032.09	1.423	1.178	0.923	0.7618
c1 = 1	1048.9	1044.95	1041.45	1037	1.473	1.223	0.9632	0.7896
